Experimental data: US20210380946A1 (priority 2018, published 2021)

Experiment: Clinical trial: neutropenia, thrombocytopenia and toxicity post-melphalan reduced-intensity conditioning
Conditions: for Days ANC >500 (Absolute Neutrophil Count) / Days Platelets <50: 140 mg/m^2 melphalan single dose

## N[C@@H](Cc1ccc(N(CCCl)CCCl)cc1)C(=O)O [Melphalan, melphalan]
Subject 1
  Days ANC >500 (Absolute Neutrophil Count): 9 days
  Days Platelets <50: 13 days
Subject 2
  Days ANC >500 (Absolute Neutrophil Count): 7 days
  Days Platelets <50: 8 days
Both subjects
  chemotherapy related toxicity: cytopenia: temporary cytopenia
  chemotherapy related toxicity: transaminases: temporary mild evelvations in transaminases
Both subjects, follow-up 1 year and 6 months
  chemotherapy related toxicity: mucositis: 2-3 grade
